Laboratory results: patent US11484601B2, “Targeting M2-like tumor-associated macrophages by using melittin-based proapoptotic peptide” (TWI[…]., priority 2018, dated 2022)

Columns and labels:
[1] = tested on: M2-type tumor-associated macrophage (CD45+F4/80+CD206+); assay: Flow cytometry of tumor tissue, M2-type TAM; format: in vivo, mouse
Experimental: More specifically, the tumor cells were thinly crushed and separated from each other in DMEM to which DNasel (1 U/mL) and collagenase D (1 mg/mL) were added. The tissue was gently agitated for 1 hour at 37° C., and separated using a […] nylon mesh filter. Red blood cells were dissolved in Phrmlyse buffer (BE bioscience). Individual cells passed through a 40-μm nylon mesh filter and then were stained with following antibodies: CD4+ T cell (CD45+CD4+CD8−), CD8+ T cell (CD45+CD4−CD8+), Foxp3+ regulatory T cell (CD4+CD25+Foxp3+), dendritic cell (CD45+CD11b+CD11c+), and M1 (CD45+F4/80+CD86+) or M2 macrophage (CD45+F4/80+CD206+): anti-CD45-FITC, anti-CD4-phycoerythrin (PE), anti-CD8-allophycocyanin (APC), anti-CD4-FITC, anti-CD25-PE, anti-Foxp3-Alexa Fluor647, anti-CD11b-APC, anti-CD11c-APCcy7, anti-Grl-PEcy7, anti-CD86-PEcy7, and anti-CD206-APC antibodies. Annexin-V was previously treated to measure the cell percentage of macrophages.

[2] = tested on: mitochondria of M2-type macrophage; assay: Confocal localisation of TMR-conjugated peptides in mitochondria; format: cell-based, mouse; details: 1 μM TMR-conjugated peptide, 2 hours; for presence in mitochondria by image measurement: MitoTracker green
Experimental: In order to identify the invasion and location of MEL-dKLA into the mitochondria of M2-type macrophage, those were identified using fluorescence microscopy via staining. Further, PASCAL 5 LSM image measurement was performed for quantitative analysis.
More specifically, RAW264.7 macrophage was differentiated into M2 which in turn was incubated together with 1 μM TMR-conjugated dKLA, MEL or MEL-dKLA for 2 hours. The peptides that were not conjugated thereto were washed off, and then the cells were stained with 250 nM MitoTracker green (Invitrogen) for 30 minutes. After the staining, the cells were stained for 10 minutes in PBS to which 4 μg/mL 4′6-diamidino-2-phenylidole (DAPI; Sigma-Aldrich, MO, USA) was added. The stained cells were measured with a laser scanning confocal microscope (Carl Zeiss, Germany). The location of MEL-dKLA in the mitochondria was measured with an LSMS image meter (Carl Zeiss).

[3] = tested on: M2 macrophage; assay: Annexin V-FITC / MitoTracker flow cytometry, M2 macrophage; format: cell-based, mouse; details: 0.8 μM peptide, 6 hours
Experimental: More specifically, the cells were stained with Annexin V-fluorescein isothiocyanate (FITC; BD Biosciences, CA, USA) and MitoTracker RedBOX (Invitrogen). The cells were inoculated at 5×10^5 cells/well, onto a 24-well plate. The next day, 0.8 μM peptide was applied thereto. In 1, 3 and 6 hours after the application, the cells were reacted with 250 nM MitoTracker for 1 hour in a serum-free culture solution. Thereafter, the cells were collected and reacted with Annexin V again. The reacted cells were measured with BD FACSCalibur, and were analyzed via FlowJo software (Treestar, Inc., CA, USA). MitoTracker could pass through protoplasmic membrane depending on the membrane charge and then accumulated within the mitochondria. In other words, staining may be identified in the mitochondria membrane of living cells, but staining may be difficult in cells where apoptosis occurs due to membrane disturbance.

[4] = tested on: CCL22; assay: Quantitative real-time PCR of lung tissue, CCL22; format: in vivo, mouse; details: vs PBS-treated group
Experimental: (§1) To measure the ability of MEL-dKLA to inhibit tumor metastasis, expression levels of CD44 known to interact with extracellular matrix ligand to promote metastasis and invasion and thus to be widely expressed in cancer, CCL22 known as M2-type macrophage marker, HIF-1α known as a marker of angiogenesis, metastasis and invasion, Ym1 as a marker of M2-type macrophage, and MMP-9 involved in the migration and settlement of tumor cells were measured via quantitative real-time PCR.
(§2) More specifically, RNA was extracted from lung tissue using an easy-BLUE RNA extraction kit (iNtRON Biotechnology, Korea). Then, cDNA was synthesized according to the manual for cyclescript reverse transcriptase (Bioneer, Korea). cDNA synthesis conditions were as follows: 15 seconds at 95, 10 seconds at 55, and 10 seconds at 72. Each reaction was conducted 3 times. […] Quantitative real-time PCR was performed using the SensiFAST SYBR no-Rox kit (Bioline, Korea).

[5] = tested on: 4T1 breast cancer cells; assay: 4T1 breast cancer model in BALB/c mice, lung nodules and H&E; format: in vivo, mouse; details: 175 nmol/kg at 3-day intervals; for nodules on the lung surface: 15 days after cancer cell injection
Experimental: More specifically, 4T1 breast cancer cells (1×10^5) were injected into BALB/c mice. Then, 3 days later, 175 nmol/kg of each of PBS, dKLA, MEL and MEL-dKLA was injected into each group at 3-day intervals. To investigate the level of metastasis and nodules on the lung surface, on 15 days after cancer cell injection, mice were sacrificed and the nodules on the lung surface were identified.
More specifically, for H&E staining, we immersed the tissue in a hematoxylin solution, stained the cell nucleus with a purple color. Then, we removed a remaining-stained portion except for the nucleus with an acidic alcohol solution, and immersed the tissue again in an eosin-added solution to stain the cytoplasm with a pink color. Then, the structure of the cell was observed.

[6] = tested on: MMP-9; assay: Quantitative real-time PCR of lung tissue, MMP-9; format: in vivo, mouse
Experimental: as §1, §2

## CC[C@H](C)[C@H](NC(=O)CN)C(=O)NCC(=O)N[C@@H](C)C(=O)N[C@H](C(=O)N[C@@H](CC(C)C)C(=O)N[C@@H](CCCCN)C(=O)N[C@H](C(=O)N[C@@H](CC(C)C)C(=O)N[C@H](C(=O)N[C@H](C(=O)NCC(=O)N[C@@H](CC(C)C)C(=O)N1CCC[C@H]1C(=O)N[C@@H](C)C(=O)N[C@@H](CC(C)C)C(=O)N[C@H](C(=O)N[C@@H](CO)C(=O)N[C@@H](Cc1c[nH]c2ccccc12)C(=O)N[C@H](C(=O)N[C@@H](CCCCN)C(=O)N[C@@H](CCCNC(=N)N)C(=O)N[C@@H](CCCCN)C(=O)N[C@@H](CCCNC(=N)N)C(=O)N[C@@H](CCC(N)=O)C(=O)N[C@@H](CCC(N)=O)C(N)=O)[C@@H](C)CC)[C@@H](C)CC)[C@@H](C)O)[C@@H](C)O)C(C)C)C(C)C [MEL]
[1]
  M2-type TAM cells compared to the PBS-treated group: decreased by half
  proportion of M2-type tumor-associated F4/80+ CD206+ TAM in CD45+ leukocytes: about 10%
[2]
  correlation with mitochondria: did not have any association with mitochondria
  presence in mitochondria by image measurement: could not be identified therein
[3]
  cell death of M2 macrophage (Annexin V / MitoTracker): no significant difference was found
[4]
  expression of CCL22: not significantly different
[5]
  metastasis to the lung by H&E staining: relatively smaller metastasis occurred
  nodules on the lung surface: no reduction thereof was observed
[5]; lungs
  number of nodules: no significant decrease
[6]
  expression of MMP-9: lower compared to that in the PBS-treated group

## d[KLAKLAKKLAKLAK] (D-amino acids) [dKLA, pro-apoptotic peptide KLA, used as control]
[1]
  proportion of M2-type tumor-associated F4/80+ CD206+ TAM in CD45+ leukocytes: about 20%
[2]
  correlation with mitochondria: did not have any association with mitochondria
  presence in mitochondria by image measurement: a small amount of dKLA was coupled to the cells
[3]
  cell death of M2 macrophage (Annexin V / MitoTracker): no significant difference was found
[4]
  expression of CCL22: not significantly different
[5]
  metastasis to the lung by H&E staining: tumor cells were widely spread and metastasis occurred
  nodules on the lung surface: no reduction thereof was observed
[6]
  expression of MMP-9: high
